# The source made the active and inactive calls. The rule behind the calls is not given here.
# Columns and labels:
# Format in all cases: functional
# Staphylococcus aureus [1] = assay: Induction of methicillin-resistant Staphylococcus aureus N315 membrane damage using ethidium bromide assessed as fluorescence intensity at 100 ug/ml by ethidium bromide outflow assay
# Staphylococcus aureus [2] = assay: Induction of methicillin-resistant Staphylococcus aureus N315 membrane damage assessed as decrease in K+ concentration at 10 ug/ml after 90 mins by coupled plasma optical emission spectrometry
# Staphylococcus aureus [3] = assay: Induction of methicillin-resistant Staphylococcus aureus N315 membrane damage assessed as increase in Na+ concentration at 10 ug/ml after 90 mins by coupled plasma optical emission spectrometry
# Staphylococcus aureus [4] = assay: Induction of methicillin-resistant Staphylococcus aureus N315 membrane damage using ethidium bromide assessed as fluorescence intensity at 100 ug/ml by ethidium bromide inflow assay
# Staphylococcus aureus [5] = assay: Antimicrobial activity against methicillin-resistant Staphylococcus aureus N315 after 24 hrs by broth microdilution method; conditions: N315, 24 h
# Staphylococcus aureus [6] = assay: Induction of methicillin-resistant Staphylococcus aureus N315 membrane damage using ethidium bromide assessed as fluorescence intensity at 10 ug/ml by ethidium bromide inflow assay
# Staphylococcus aureus [7] = assay: Induction of methicillin-resistant Staphylococcus aureus N315 membrane damage using ethidium bromide assessed as fluorescence intensity at 10 ug/ml by ethidium bromide outflow assay
SMILES,Activity (Staphylococcus aureus [1]),Activity (Staphylococcus aureus [2]),Activity (Staphylococcus aureus [3]),Activity (Staphylococcus aureus [4]),MIC (Staphylococcus aureus [5]) [µg/mL],Activity (Staphylococcus aureus [6]),Activity (Staphylococcus aureus [7])
Oc1ccc2c(c1)CCc1ccc(cc1)-c1cccc(c1)CCc1ccc-2c(O)c1,inactive,inactive,inactive,inactive,,,
Oc1ccc2c(c1)CCc1cccc(c1)-c1cccc(c1)CCc1ccc-2c(O)c1,,Active,Active,,0.5,Active,Active
Oc1ccc2c(c1)CCc1ccccc1-c1cccc(c1)CCc1ccc-2c(O)c1,,,,,2,,
Oc1ccc2c(c1)CCc1ccc(cc1)Oc1cccc(c1)CCc1ccc-2c(O)c1,,,,,,Active,Active

# — ChEMBL document CHEMBL3585312, “Anti-MRSA activity of isoplagiochin-type macrocyclic bis(bibenzyl)s is mediated through cell membrane damage” (2015)
